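Growth conditions: 96-well plates. Treatment: test compound, 48 hours, 5 concentrations. Analysis: linear interpolation between bracketing concentrations; unreached endpoints set to highest concentration. Abbreviation: GI50, concentration required for 50% inhibition of growth.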 The source made the active and inactive calls. Cut-off read from the data, not from the text of the source: active = GI50 up to about 1.1 µM and inactive = higher.
Key:
Experiment in all cases: NCI-60 cell line screen, 48 h
OVCAR-5 = test system: OVCAR-5
SF-539 = test system: SF-539
IGROV-1 = test system: IGROV-1
NCI-H226 = test system: NCI-H226
NCI-H522 = test system: NCI-H522
SF-295 = test system: SF-295
RPMI-8226 = test system: RPMI-8226
OVCAR-8 = test system: OVCAR-8
OVCAR-3 = test system: OVCAR-3
SNB-75 = test system: SNB-75
COLO 205 = test system: COLO 205
LOX IMVI = test system: LOX IMVI
UO-31 = test system: UO-31
786-0 = test system: 786-0
HOP-62 = test system: HOP-62
NCI-H23 = test system: NCI-H23
TK-10 = test system: TK-10

| Structure (SMILES) | GI50 (OVCAR-5) | GI50 (SF-539) | GI50 (IGROV-1) | GI50 (NCI-H226) | GI50 (NCI-H522) | GI50 (SF-295) | GI50 (RPMI-8226) | GI50 (OVCAR-8) | GI50 (OVCAR-3) | GI50 (SNB-75) | GI50 (COLO 205) | GI50 (LOX IMVI) | GI50 (UO-31) | GI50 (786-0) | GI50 (HOP-62) | GI50 (NCI-H23) | GI50 (TK-10) |
| --- | --- | --- | --- | --- | --- | --- | --- | --- | --- | --- | --- | --- | --- | --- | --- | --- | --- |
| CN1C(OCc2ccccc2)c2c(ccc3c2OCO3)C2C=Cc3cc4c(cc3C21)OCO4 (centres undefined) | 1.52 µM (inactive) | 1.63 µM (inactive) | 0.792 µM (active) | 1.47 µM (inactive) | 0.989 µM (active) | 1.47 µM (inactive) | 0.221 µM (active) | 0.319 µM (active) | 0.69 µM (active) | 1.4 µM (inactive) | 1.02 µM (active) | 0.182 µM (active) | 1.32 µM (inactive) | 1.36 µM (inactive) | 1.58 µM (inactive) | 1.38 µM (inactive) | 1.89 µM (inactive) |
| CC(=O)Nc1ccc(-c2nnc(SCC(=O)Nc3ccc(Cl)cc3)o2)cc1 | 16.4 µM (inactive) | 16 µM (inactive) | 12.2 µM (inactive) | 11.1 µM (inactive) | 2.34 µM (inactive) | 11.3 µM (inactive) | 6.89 µM (inactive) | 12.5 µM (inactive) | 9.06 µM (inactive) | 21.5 µM (inactive) | 17.6 µM (inactive) | 5.33 µM (inactive) | 14.4 µM (inactive) | 5.78 µM (inactive) | 22.4 µM (inactive) | 3.39 µM (inactive) | 18.4 µM (inactive) |
| COc1ccc(C2S/C(=C\c3ccc(OC)cc3OC)C(=O)N2NC(=O)Cc2ccccc2)cc1 (centres undefined) | > 100 µM (inactive) | > 100 µM (inactive) | > 100 µM (inactive) | > 100 µM (inactive) | > 100 µM (inactive) | > 100 µM (inactive) | > 100 µM (inactive) | > 100 µM (inactive) |  | > 100 µM (inactive) | > 100 µM (inactive) | > 100 µM (inactive) | > 100 µM (inactive) | > 100 µM (inactive) | > 100 µM (inactive) | > 100 µM (inactive) | > 100 µM (inactive) |
| COc1ccccc1NC(=O)CC(=O)N1N=C(C)C(/N=N/c2ccc(S(N)(=O)=O)cc2)C1=O (centres undefined) | > 100 µM (inactive) | > 100 µM (inactive) | > 100 µM (inactive) | > 100 µM (inactive) | > 100 µM (inactive) | > 100 µM (inactive) | > 100 µM (inactive) | > 100 µM (inactive) | > 100 µM (inactive) | > 100 µM (inactive) | > 100 µM (inactive) | > 100 µM (inactive) | > 100 µM (inactive) | > 100 µM (inactive) | > 100 µM (inactive) | > 100 µM (inactive) | > 100 µM (inactive) |
| O=C(NC(=O)c1cn(CCNCCO)c(=O)[nH]c1=O)OCc1ccccc1 | > 100 µM (inactive) | > 100 µM (inactive) | > 100 µM (inactive) | > 100 µM (inactive) | > 100 µM (inactive) | > 100 µM (inactive) | > 100 µM (inactive) | > 100 µM (inactive) | > 100 µM (inactive) | 45.9 µM (inactive) | > 100 µM (inactive) | > 100 µM (inactive) |  | > 100 µM (inactive) | > 100 µM (inactive) | > 100 µM (inactive) | > 100 µM (inactive) |
| Clc1ccc(OCc2nnc3n2N=C(c2ccc(Br)cc2)CS3)cc1 | > 100 µM (inactive) | 8.43 µM (inactive) |  | 53.1 µM (inactive) | 7.1 µM (inactive) | 15.8 µM (inactive) | 30.3 µM (inactive) | 15.9 µM (inactive) | > 10 µM (inactive) | 2.96 µM (inactive) |  | 3.74 µM (inactive) | 2.8 µM (inactive) | 16.4 µM (inactive) | 9.82 µM (inactive) | 40.9 µM (inactive) | 14.4 µM (inactive) |
| COc1ccc(OC(=O)CC2Cc3cc(OC)c(OC)c(OC)c3-c3ccc(SC)c(=O)cc32)cc1 (centres undefined) |  | 0.114 µM (active) | 1.85 µM (inactive) | 0.216 µM (active) | 0.2 µM (active) | 0.0794 µM (active) | 0.128 µM (active) | 0.27 µM (active) | 0.185 µM (active) | 2.52 µM (inactive) | 0.403 µM (active) | 0.172 µM (active) | 0.792 µM (active) | 0.0551 µM (active) | 0.183 µM (active) | 0.421 µM (active) | 29.7 µM (inactive) |

— ChEMBL document CHEMBL1201862, “PubChem BioAssay data set” (2004)
